This passage reports IC50 results from US9505728B2, “Triazolone compounds and uses thereof” (INCEPTION 2, INC., priority 2012, dated 2016).

SMILES strings stand for the structures. pIC50: −log10 of the molar value.

This assay deals with T1, Human PPARα (Homo sapiens, UniProt Q07869).
T1 construct: host or cells: proprietary non-human mammalian cells
T1 sequence (Q07869 1-468): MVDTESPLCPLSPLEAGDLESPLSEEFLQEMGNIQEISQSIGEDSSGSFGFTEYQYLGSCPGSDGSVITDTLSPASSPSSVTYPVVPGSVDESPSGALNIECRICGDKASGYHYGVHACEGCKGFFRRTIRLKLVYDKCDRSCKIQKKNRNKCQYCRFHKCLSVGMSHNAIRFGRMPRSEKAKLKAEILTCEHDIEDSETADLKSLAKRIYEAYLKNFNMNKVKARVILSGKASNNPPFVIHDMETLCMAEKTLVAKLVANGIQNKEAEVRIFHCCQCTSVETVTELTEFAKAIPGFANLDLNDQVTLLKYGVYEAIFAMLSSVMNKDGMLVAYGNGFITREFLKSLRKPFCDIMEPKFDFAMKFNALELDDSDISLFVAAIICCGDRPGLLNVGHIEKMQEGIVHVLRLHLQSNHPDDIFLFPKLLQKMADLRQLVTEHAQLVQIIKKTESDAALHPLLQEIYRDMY
Kind of assay: Human PPARα Reporter Assay (luciferase). To be noted: human PPARα reporter cells, overnight incubation, antagonism; read-out: Luciferase IC50. It is filed as cell-based. The method, then: Human PPARα Reporter Assay
The screening of test compounds for agonist or antagonist activities against human PPARα receptors was performed using a commercial kit, Human PPARα Reporter Assay System (Indigo Biosciences, Cat. #IB00111).
This nuclear receptor assay system utilizes proprietary non-human mammalian cells engineered to provide constitutive, high-level expression of Human PPARα. Because these cells incorporate a PPARα-responsive luciferase reporter gene, quantifying expressed luciferase activity provides a sensitive surrogate measure of PPARα activity in the treated cells. The primary application of this reporter assay system is in the screening of test samples to quantify any functional activity, either agonist or antagonist, that they may exert against human PPARα.
Briefly, reporter cells are dispensed into wells of the assay plate and then immediately dosed with test compounds. Following an overnight incubation, the treatment media is discarded and Luciferase Detection Reagent (LDR) is added. The intensity of light emission from the ensuing luciferase reaction provides a sensitive measure that is directly proportional to the relative level of PPARα activation in the reporter cells.
Turning to `CCn1c(CCCc2ccc(-c3cccc(C(F)(F)C(=O)O)c3)cc2)nn(Cc2ccc(C(C)(C)C)cc2)c1=O` [Example 28, 2-(4′-(3-(1-(4-(tert-Butyl)benzyl)-4-ethyl-5-oxo-4,5-dihydro-1H-1,2,4-triazol-3-yl)propyl)-[1,1′-biphenyl]-3-yl)-2,2-difluoroacetic acid], the pIC50 – broadly, the IC50 on a negative log10 scale, so that one unit is a factor of ten – is 5.70.

Take `CCn1c(CCCc2ccc(-c3cccc(-c4nnn[nH]4)c3)cc2)nn(Cc2ccc(C(C)(C)C)cc2)c1=O` [Example 29, 3-(3-(3′-(1H-Tetrazol-5-yl)-[1,1′-biphenyl]-4-yl)propyl)-1-(4-(tert-butyl)benzyl)-4-ethyl-1H-1,2,4-triazol-5(4H)-one]: the pIC50 was 5.92.

Regarding `CCn1c(CC2CC2c2ccc(-c3cccc(CC(=O)O)c3)cc2)nn(Cc2ccc(C(C)(C)C)cc2)c1=O` (stereo not drawn) [Example 30, 2-(4′-(2-((1-(4-(tert-butyl)benzyl)-4-ethyl-5-oxo-4,5-dihydro-1H-1,2,4-triazol-3-yl)methyl)cyclopropyl)-[1,1′-biphenyl]-3-yl)acetic acid], the pIC50 was 5.89.

For `CC(C)n1c(CCCc2ccc(-c3cccc(CC(=O)O)c3)cc2)nn(Cc2ccc(C(C)(C)C)cc2)c1=O` [Example 31, 2-(4′-(3-(1-(4-(tert-Butyl)benzyl)-4-isopropyl-5-oxo-4,5-dihydro-1H-1,2,4-triazol-3-yl)propyl)-[1,1′-biphenyl]-3-yl)acetic acid], the pIC50 was 5.71.

As to `CC(C)(C)c1ccc(Cn2nc(CCCc3ccc(-c4cccc(CC(=O)O)c4)cc3)n(-c3ccccc3)c2=O)cc1` [Example 32, 2-(4′-(3-(1-(4-(tert-Butyl)benzyl)-5-oxo-4-phenyl-4,5-dihydro-1H-1,2,4-triazol-3-yl)propyl)-[1,1′-biphenyl]-3-yl)acetic acid], the negative logarithm of the IC50 (pIC50) was 5.52.

Regarding `CCn1c(CCCc2ccc(-c3ccc(F)c(CC(=O)O)c3)cc2)nn(Cc2ccc(C(C)(C)C)cc2)c1=O` [Example 33, 2-(4′-(3-(1-(4-(tert-Butyl)benzyl)-4-ethyl-5-oxo-4,5-dihydro-1H-1,2,4-triazol-3-yl)propyl)-4-fluoro-[1,1′-biphenyl]-3-yl)acetic acid], the negative-log IC50 (pIC50) is 6.37.

As for `CCn1c(CCCc2ccc(-c3cccc(/C=C/C(=O)O)c3)cc2)nn(Cc2ccc(C(C)(C)C)cc2)c1=O` [Example 34, 3-(4′-(3-(1-(4-(tert-Butyl)benzyl)-4-ethyl-5-oxo-4,5-dihydro-1H-1,2,4-triazol-3-yl)propyl)-[1,1′-biphenyl]-3-yl)acrylic acid], the negative logarithm of the IC50 (pIC50) is 5.84.

Consider `CCn1c(CCCc2ccc(-c3cccc(C4CC4C(=O)O)c3)cc2)nn(Cc2ccc(C(C)(C)C)cc2)c1=O` (stereo not drawn) [Example 35, 2-(4′-(3-(1-(4-(tert-Butyl)benzyl)-4-ethyl-5-oxo-4,5-dihydro-1H-1,2,4-triazol-3-yl)propyl)-[1,1′-biphenyl]-3-yl)cyclopropanecarboxylic acid], for which the negative-log IC50 (pIC50) is 5.95.

As for `CCn1c(CCCc2ccc(-c3cccc(CCC(=O)O)c3)cc2)nn(Cc2ccc(C(C)(C)C)cc2)c1=O` [Example 36, 3-(4′-(3-(1-(4-(tert-Butyl)benzyl)-4-ethyl-5-oxo-4,5-dihydro-1H-1,2,4-triazol-3-yl)propyl)-[1,1′-biphenyl]-3-yl)propanoic acid], the pIC50 is 5.56.

`CCn1c(CCCc2ccc(-c3cccc(CC(=O)O)c3)cc2)nn(Cc2ccc(Br)cc2)c1=O` [Example 37, 2-(4′-(3-(1-(4-Bromobenzyl)-4-ethyl-5-oxo-4,5-dihydro-1H-1,2,4-triazol-3-yl)propyl)-[1,1′-biphenyl]-3-yl)acetic acid]: the pIC50 was 5.71.

As for `CCOc1ccc(-c2ccc(CCCc3nn(Cc4ccc(C(C)(C)C)cc4)c(=O)n3CC)cc2)cc1CC(=O)O` [Example 38, 2-(4′-(3-(1-(4-(tert-Butyl)benzyl)-4-ethyl-5-oxo-4,5-dihydro-1H-1,2,4-triazol-3-yl)propyl)-4-ethoxy-[1,1′-biphenyl]-3-yl)acetic acid], the negative logarithm of the IC50 (pIC50) was 8.00.

Consider `CCn1c(CCCc2ccc(-c3csc(CC(=O)O)c3)cc2)nn(Cc2ccc(C(C)(C)C)cc2)c1=O` [Example 39, 2-(4-(4-(3-(1-(4-(tert-Butyl)benzyl)-4-ethyl-5-oxo-4,5-dihydro-1H-1,2,4-triazol-3-yl)propyl)phenyl)thiophen-2-yl)acetic acid], for which the negative logarithm of the IC50 (pIC50) was 6.15.

For `CCn1c(CCCc2ccc(-c3cc(NS(C)(=O)=O)ccn3)cc2)nn(Cc2ccc(C(C)(C)C)cc2)c1=O` [Example 40, 1-{[4-(tert-Butyl)phenyl]methyl}-4-ethyl-3-[3-(4-{4-[(methylsulfonyl)amino](2-pyridyl)}phenyl)propyl]-1,2,4-triazolin-5-one], the negative-log IC50 (pIC50) was 6.39.

As to `CCn1c(CCCc2ccc(-c3cc(C(=O)O)cc(C(F)(F)F)c3)cc2)nn(Cc2ccc(C(C)(C)C)cc2)c1=O` [Example 41, 4′-(3-(1-(4-(tert-Butyl)benzyl)-4-ethyl-5-oxo-4,5-dihydro-1H-1,2,4-triazol-3-yl)propyl)-5-(trifluoromethyl)-[1,1′-biphenyl]-3-carboxylic acid], the negative-log IC50 (pIC50) is 6.29.

As for `CCn1c(CCCc2ccc(-c3cccc(NS(=O)(=O)C4CC4)n3)cc2)nn(Cc2ccc(C(C)(C)C)cc2)c1=O` [Example 42, 1-{[4-(tert-Butyl)phenyl]methyl}-3-[3-(4-{6-[(cyclopropylsulfonyl)amino](2-pyridyl)}phenyl)propyl]-4-ethyl-1,2,4-triazolin-5-one], the pIC50 was 6.31.

In the case of `CCn1c(CCCc2ccc(-c3ccc(CC(=O)O)nc3)cc2)nn(Cc2ccc(C(C)(C)C)cc2)c1=O` [Example 43, 2-(5-{4-[3-(1-{[4-(tert-Butyl)phenyl]methyl}-4-ethyl-5-oxo-1,2,4-triazolin-3-yl)propyl]phenyl}-2-pyridyl)acetic acid], the negative-log IC50 (pIC50) is 6.05.

For the molecule `CCn1c(CCCc2ccc(-c3cccc(C(C)C(=O)O)c3)cc2)nn(Cc2ccc(C(C)(C)C)cc2)c1=O` (stereo not drawn) [Example 44, 2-(3-{4-[3-(1-{[4-(tert-Butyl)phenyl]methyl}-4-ethyl-5-oxo-1,2,4-triazolin-3-yl)propyl]phenyl}phenyl)propanoic acid], the negative logarithm of the IC50 (pIC50) was 6.19.

For the molecule `CCn1c(CCCc2ccc(-c3cc(CC(=O)O)ccn3)cc2)nn(Cc2ccc(C(C)(C)C)cc2)c1=O` [Example 45, 2-(2-{4-[3-(1-{[4-(tert-Butyl)phenyl]methyl}-4-ethyl-5-oxo-1,2,4-triazolin-3-yl)propyl]phenyl}-4-pyridyl)acetic acid], the pIC50 is 6.51.

Take `CCC(C(=O)O)c1cccc(-c2ccc(CCCc3nn(Cc4ccc(C(C)(C)C)cc4)c(=O)n3CC)cc2)c1` (stereo not drawn) [Example 46, 2-(3-{4-[3-(1-{[4-(tert-Butyl)phenyl]methyl}-4-ethyl-5-oxo-1,2,4-triazolin-3-yl)propyl]phenyl}phenyl)butanoic acid]: the pIC50 was 6.16.

On to `CCn1c(CCCc2ccc(-c3cccc(C(Cc4ccccc4)C(=O)O)c3)cc2)nn(Cc2ccc(C(C)(C)C)cc2)c1=O` (stereo not drawn) [Example 47, 2-(3-{4-[3-(1-{[4-(tert-Butyl)phenyl]methyl}-4-ethyl-5-oxo(1,2,4-triazolin-3-yl))propyl]phenyl}phenyl)-3-phenylpropanoic acid], for which the pIC50 was 6.16.

With `CCn1c(CCCc2ccc(-c3cc(C(F)(F)F)cc(CC(=O)O)n3)cc2)nn(Cc2ccc(C(C)(C)C)cc2)c1=O` [Example 48, 2-(6-{4-[3-(1-{[4-(tert-Butyl)phenyl]methyl}-4-ethyl-5-oxo(1,2,4-triazolin-3-yl))propyl]phenyl}-4-(trifluoromethyl)-2-pyridyl)acetic acid], the negative-log IC50 (pIC50) was 6.37.

On to `CCn1c(CCCc2ccc(-c3ccc(OCC4CC4)c(CC(=O)O)c3)cc2)nn(Cc2ccc(C(C)(C)C)cc2)c1=O` [Example 49, 2-(4′-(3-(1-(4-(tert-Butyl)benzyl)-4-ethyl-5-oxo-4,5-dihydro-1H-1,2,4-triazol-3-yl)propyl)-4-(cyclopropylmethoxy)-[1,1′-biphenyl]-3-yl)acetic acid], for which the pIC50 is 7.16.

As to `CCn1c(CCCc2ccc(-c3cccc(CC(=O)O)n3)cc2)nn(Cc2ccc(C(C)(C)C)cc2)c1=O` [Example 50, 2-(6-{4-[3-(1-{[4-(tert-Butyl)phenyl]methyl}-4-ethyl-5-oxo-1,2,4-triazolin-3-yl)propyl]phenyl}-2-pyridyl) acetic acid], the negative-log IC50 (pIC50) is 6.25.

Consider `CCn1c(CCCc2ccc(-c3ccc(C(O)C(=O)NC4CC4)cc3)cc2)nn(Cc2ccc(C(C)(C)C)cc2)c1=O` (stereo not drawn) [Example 51, 2-(4′-(3-(1-(4-(tert-Butyl)benzyl)-4-ethyl-5-oxo-4,5-dihydro-1H-1,2,4-triazol-3-yl)propyl)-[1,1′-biphenyl]-4-yl)-N-cyclopropyl-2-hydroxyacetamide], for which the negative logarithm of the IC50 (pIC50) was 6.53.
